Read-outs that look alike come from different tables or passages of the source.
How the values were obtained:
Type in all cases: cell-based
[1] = target: T1, human Nav1.5 (late current) (Homo sapiens, UniProt Q14524); assay: Nav1.5 Late Current Assay (QPatch HT whole-cell patch clamp, 30 nM ATX-II); conditions: HEK293 cells stably expressing human Nav1.5, pH 7.3, late current with 30 nM ATX-II, read-out: percent inhibition hNav1.5 Late (5 uM)
T1 construct: host or cells: HEK293
Experimental: (§1) In vitro Na+ Current Inhibition Assays were performed by Eurofins Discovery (St Charles, MO). All compound functional activity determinations were determined through electrophysiological analyses of Na+ currents in HEK293 cells expressing a stably transfected Na+ channel (human Nav1.1, 1.2, 1.3, 1.5, 1.6, 1.7, or 1.8). After harvesting with Accutase cells are maintained in serum free medium at room temperature prior to electrophysiological recording utilizing the QPatch HT automated whole-cell patch-clamp platform (Sophion Bioscience, Woburn MA). Stock solution aliquots of the test compound are prepared in DMSO at 300× the final assay concentrations, and stored at −20° C. until the day of assay. On the day of the assay, an aliquot of the stock solution is thawed and diluted into external solution (137 mM NaCl, 4 mM KCl, 1 mM MgCl2, 1.8 mM CaCl2, 10 mM HEPES, 10 mM Glucose (pH 7.3, titrated with 10M NaOH) to make final test concentrations. A final concentration of 0.33% DMSO is maintained for each concentration of the assay compounds. Internal solution for recordings of Na+ consist consists of 100 mM CsF, 45 mM CsCl, 5 mM NaCl, 10 mM HEPES, 5 mM EGTA (pH 7.3, titrated with 1M CsOH).
Onset and steady state induction of late Nav1.5 current was measured using a pulse pattern, repeated every 5 sec, consisting of a hyperpolarizing pulse to −120 mV for a 200 ms duration, depolarization to −15 mV amplitude for a 40 ms duration, followed by step to 40 mV for 200 ms and finally a 100 ms ramp (1.2 V/s) to a holding potential of −80 mV. Each concentration of compound was applied for 5 minutes. The assay was performed at room temperature. After establishing vehicle control condition, all further addition of external solutions contain 30 nM ATX-II to activate late currents. Each concentration of compound was also co-applied with 30 nM ATXII to estimate the Nav1.5 late current inhibition. […]. ATXII was used as the agonist positive control and was tested concurrently with the test compound. Ranolazine was used as the positive control and was tested concurrently with the test compound.
Nav1.5 late current was measured as the total charge flowing through the Nav1.5 channels (area under the curve) 5 ms after the Nav1.5 peak current till the end of the test pulse and as charge at their maxima during the ramp. Individual cell results were normalized to their respective vehicle control and the results were averaged. The sodium current was assessed in 30 nM ATXII as vehicle control conditions and then at the end of each five (5) minute compound application in the presence of 30 nM ATXII. Individual cell result was normalized to 30 nM ATXII vehicle control amplitude and the mean±SEM calculated for each compound concentration.

human Nav1.7 = target: T2, human Nav1.7 (Homo sapiens, UniProt Q15858); assay: Two pulse assay protocol, Nav1.7; conditions: peak current
T2 construct: host or cells: HEK293
Experimental: as §1
(§2) Two pulse assay protocol for human Nav1.1, 1.2, 1.3, 1.5, 1.6, 1.7, and 1.8 channels. Mammalian cultured cells expressing the indicated human Nav1.1, 1.2, 1.3, 1.5, 1.6, 1.7 or 1.8 channels were assayed using the The QPatch HT (Sophion Bioscience, Woburn MA) automated system with an intracellular solution (mM) of 100 CsF, 45 CsCl, 5 NaCl, 10 HEPES, 5 EGTA (pH 7.3, titrated with 1M CsOH) and extracellular solution (mM) of 137 NaCl, 4 KCl, 1 MgCl2, 1.8 CaCl2, 10 HEPES, 10 Glucose (pH 7.3, titrated with 10M NaOH). Onset and steady state block of the sodium channel was measured using a pulse pattern, repeated every 20 seconds (s) from a holding potential of −120 mV for 100 ms, and then pulsed to 0 mV for 500 ms to inactivate the Na channels and facilitate inactivated state-dependent binding of the test compounds. The cell membranes were then stepped back to −120 mV for 10 ms to recover from inactivation into resting or closed state (channels with test compound bound to them will not recover from inactivation and will not open) before stepping to 0 mV for 50 ms (pulse 2) to measure Na channels that are available to open. Peak current was measured during the step to 0 mV at pulse 1 and 2 to measure tonic and state-dependent inhibition. Compound activities were assessed by dividing post current amplitude (at the end of each five (5) minute compound application) by the vehicle control amplitude and the mean calculated for each compound concentration. Tetracaine was used as a positive control and was tested concurrently with the test compounds. Current amplitudes in excess of 200 pA at the control stage were analyzed. The amplitude of the current was calculated by measuring the difference between the peak inward current on stepping to 0 mV (i.e. peak of the current) and remaining current at the end of the step. The current was assessed in vehicle control conditions and then at the end of each five (5) minute compound application.

human Nav1.6 = target: T3, human Nav1.6 (Homo sapiens, UniProt Q9UQD0); assay: Two pulse assay protocol, Nav1.6; conditions: 5 uM, peak current
T3 construct: host or cells: HEK293
Experimental: as §1, §2

[2] = target: T4, human Nav1.5 (pulse 2, state-dependent inhibition) (Homo sapiens, UniProt Q14524); assay: Two pulse assay protocol, Nav1.5; conditions: HEK293 cells stably expressing human Nav1.5, pH 7.3, peak current, pulse 2 (state-dependent), read-out: percent inhibition hNav1.5, Pulse 2 (5 uM)
T4 construct: host or cells: HEK293
Experimental: as §1, §2

[3] = target: T5, human Nav1.5 (pulse 1, tonic inhibition) (Homo sapiens, UniProt Q14524); assay: Two pulse assay protocol, Nav1.5; conditions: HEK293 cells stably expressing human Nav1.5, pH 7.3, peak current, pulse 1 (tonic), read-out: percent inhibition hNav1.5, Pulse 1 (5 uM)
T5 construct: host or cells: HEK293
Experimental: as §1, §2

human Nav1.8 = target: T6, human Nav1.8 (Homo sapiens, UniProt Q9Y5Y9); assay: Two pulse assay protocol, Nav1.8; conditions: peak current
T6 construct: host or cells: HEK293
Experimental: as §1, §2

[4] = pulse 1 (tonic), read-out: percent inhibition hNav1.7, Pulse 1 (5 uM)
[5] = pulse 2 (state-dependent), read-out: percent inhibition hNav1.7, Pulse 2 (5 uM)
[6] = pulse 1 (tonic), read-out: percent inhibition hNav1.6, Pulse 1 (5 uM)
[7] = pulse 2 (state-dependent), read-out: percent inhibition hNav1.6, Pulse 2 (5 uM)
[8] = pulse 1 (tonic), read-out: percent inhibition hNav1.8, Pulse 1 (5 uM)
[9] = pulse 2 (state-dependent), read-out: percent inhibition hNav1.8, Pulse 2 (5 uM)

T6 sequence (Q9Y5Y9 whole entry): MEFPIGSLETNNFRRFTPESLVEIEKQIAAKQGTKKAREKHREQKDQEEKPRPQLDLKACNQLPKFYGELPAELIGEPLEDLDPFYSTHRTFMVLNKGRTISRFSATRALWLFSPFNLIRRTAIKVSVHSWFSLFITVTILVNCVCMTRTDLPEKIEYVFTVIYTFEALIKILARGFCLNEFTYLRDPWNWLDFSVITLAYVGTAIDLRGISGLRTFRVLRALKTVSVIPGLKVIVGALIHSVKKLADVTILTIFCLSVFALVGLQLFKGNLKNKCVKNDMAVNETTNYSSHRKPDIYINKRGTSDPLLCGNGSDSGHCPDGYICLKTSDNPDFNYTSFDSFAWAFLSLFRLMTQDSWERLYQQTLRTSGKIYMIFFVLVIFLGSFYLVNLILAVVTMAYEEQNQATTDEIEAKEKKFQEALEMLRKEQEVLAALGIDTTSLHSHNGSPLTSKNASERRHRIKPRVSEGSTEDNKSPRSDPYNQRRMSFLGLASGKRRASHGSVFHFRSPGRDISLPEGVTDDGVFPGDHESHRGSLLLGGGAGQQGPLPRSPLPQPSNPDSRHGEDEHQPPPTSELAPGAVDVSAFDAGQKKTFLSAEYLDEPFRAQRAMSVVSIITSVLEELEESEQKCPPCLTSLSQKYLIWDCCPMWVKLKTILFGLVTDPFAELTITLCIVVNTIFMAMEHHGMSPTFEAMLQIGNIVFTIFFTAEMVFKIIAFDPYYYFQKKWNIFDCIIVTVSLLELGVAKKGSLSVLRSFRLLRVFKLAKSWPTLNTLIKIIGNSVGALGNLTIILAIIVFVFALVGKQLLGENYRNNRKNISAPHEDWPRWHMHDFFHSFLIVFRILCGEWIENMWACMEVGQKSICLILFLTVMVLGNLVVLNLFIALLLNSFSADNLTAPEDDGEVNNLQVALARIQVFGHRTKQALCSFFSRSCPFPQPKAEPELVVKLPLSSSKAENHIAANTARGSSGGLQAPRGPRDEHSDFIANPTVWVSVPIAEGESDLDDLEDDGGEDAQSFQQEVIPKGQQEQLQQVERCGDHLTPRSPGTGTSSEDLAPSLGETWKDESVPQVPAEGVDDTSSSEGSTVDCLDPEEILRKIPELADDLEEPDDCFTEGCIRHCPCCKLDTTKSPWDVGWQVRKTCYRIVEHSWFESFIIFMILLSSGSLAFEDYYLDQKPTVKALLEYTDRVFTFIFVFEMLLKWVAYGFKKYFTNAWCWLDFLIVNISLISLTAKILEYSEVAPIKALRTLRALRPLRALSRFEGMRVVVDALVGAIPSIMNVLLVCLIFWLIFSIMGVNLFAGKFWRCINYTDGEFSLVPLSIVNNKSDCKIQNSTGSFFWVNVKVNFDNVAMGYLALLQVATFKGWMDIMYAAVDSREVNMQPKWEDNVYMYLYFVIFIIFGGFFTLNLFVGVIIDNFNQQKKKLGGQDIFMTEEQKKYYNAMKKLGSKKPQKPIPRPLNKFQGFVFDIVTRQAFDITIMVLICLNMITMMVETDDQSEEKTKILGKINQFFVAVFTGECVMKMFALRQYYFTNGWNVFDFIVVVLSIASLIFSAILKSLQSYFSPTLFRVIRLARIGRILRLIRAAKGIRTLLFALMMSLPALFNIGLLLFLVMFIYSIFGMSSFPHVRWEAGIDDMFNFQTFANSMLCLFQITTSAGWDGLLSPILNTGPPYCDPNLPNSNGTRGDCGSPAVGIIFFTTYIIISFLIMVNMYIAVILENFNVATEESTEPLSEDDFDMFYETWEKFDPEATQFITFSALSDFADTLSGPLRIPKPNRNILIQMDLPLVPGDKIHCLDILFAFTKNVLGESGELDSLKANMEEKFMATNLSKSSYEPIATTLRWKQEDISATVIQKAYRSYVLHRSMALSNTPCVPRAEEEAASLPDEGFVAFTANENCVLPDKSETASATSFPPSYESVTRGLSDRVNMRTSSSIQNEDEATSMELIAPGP
T3 sequence (Q9UQD0 whole entry): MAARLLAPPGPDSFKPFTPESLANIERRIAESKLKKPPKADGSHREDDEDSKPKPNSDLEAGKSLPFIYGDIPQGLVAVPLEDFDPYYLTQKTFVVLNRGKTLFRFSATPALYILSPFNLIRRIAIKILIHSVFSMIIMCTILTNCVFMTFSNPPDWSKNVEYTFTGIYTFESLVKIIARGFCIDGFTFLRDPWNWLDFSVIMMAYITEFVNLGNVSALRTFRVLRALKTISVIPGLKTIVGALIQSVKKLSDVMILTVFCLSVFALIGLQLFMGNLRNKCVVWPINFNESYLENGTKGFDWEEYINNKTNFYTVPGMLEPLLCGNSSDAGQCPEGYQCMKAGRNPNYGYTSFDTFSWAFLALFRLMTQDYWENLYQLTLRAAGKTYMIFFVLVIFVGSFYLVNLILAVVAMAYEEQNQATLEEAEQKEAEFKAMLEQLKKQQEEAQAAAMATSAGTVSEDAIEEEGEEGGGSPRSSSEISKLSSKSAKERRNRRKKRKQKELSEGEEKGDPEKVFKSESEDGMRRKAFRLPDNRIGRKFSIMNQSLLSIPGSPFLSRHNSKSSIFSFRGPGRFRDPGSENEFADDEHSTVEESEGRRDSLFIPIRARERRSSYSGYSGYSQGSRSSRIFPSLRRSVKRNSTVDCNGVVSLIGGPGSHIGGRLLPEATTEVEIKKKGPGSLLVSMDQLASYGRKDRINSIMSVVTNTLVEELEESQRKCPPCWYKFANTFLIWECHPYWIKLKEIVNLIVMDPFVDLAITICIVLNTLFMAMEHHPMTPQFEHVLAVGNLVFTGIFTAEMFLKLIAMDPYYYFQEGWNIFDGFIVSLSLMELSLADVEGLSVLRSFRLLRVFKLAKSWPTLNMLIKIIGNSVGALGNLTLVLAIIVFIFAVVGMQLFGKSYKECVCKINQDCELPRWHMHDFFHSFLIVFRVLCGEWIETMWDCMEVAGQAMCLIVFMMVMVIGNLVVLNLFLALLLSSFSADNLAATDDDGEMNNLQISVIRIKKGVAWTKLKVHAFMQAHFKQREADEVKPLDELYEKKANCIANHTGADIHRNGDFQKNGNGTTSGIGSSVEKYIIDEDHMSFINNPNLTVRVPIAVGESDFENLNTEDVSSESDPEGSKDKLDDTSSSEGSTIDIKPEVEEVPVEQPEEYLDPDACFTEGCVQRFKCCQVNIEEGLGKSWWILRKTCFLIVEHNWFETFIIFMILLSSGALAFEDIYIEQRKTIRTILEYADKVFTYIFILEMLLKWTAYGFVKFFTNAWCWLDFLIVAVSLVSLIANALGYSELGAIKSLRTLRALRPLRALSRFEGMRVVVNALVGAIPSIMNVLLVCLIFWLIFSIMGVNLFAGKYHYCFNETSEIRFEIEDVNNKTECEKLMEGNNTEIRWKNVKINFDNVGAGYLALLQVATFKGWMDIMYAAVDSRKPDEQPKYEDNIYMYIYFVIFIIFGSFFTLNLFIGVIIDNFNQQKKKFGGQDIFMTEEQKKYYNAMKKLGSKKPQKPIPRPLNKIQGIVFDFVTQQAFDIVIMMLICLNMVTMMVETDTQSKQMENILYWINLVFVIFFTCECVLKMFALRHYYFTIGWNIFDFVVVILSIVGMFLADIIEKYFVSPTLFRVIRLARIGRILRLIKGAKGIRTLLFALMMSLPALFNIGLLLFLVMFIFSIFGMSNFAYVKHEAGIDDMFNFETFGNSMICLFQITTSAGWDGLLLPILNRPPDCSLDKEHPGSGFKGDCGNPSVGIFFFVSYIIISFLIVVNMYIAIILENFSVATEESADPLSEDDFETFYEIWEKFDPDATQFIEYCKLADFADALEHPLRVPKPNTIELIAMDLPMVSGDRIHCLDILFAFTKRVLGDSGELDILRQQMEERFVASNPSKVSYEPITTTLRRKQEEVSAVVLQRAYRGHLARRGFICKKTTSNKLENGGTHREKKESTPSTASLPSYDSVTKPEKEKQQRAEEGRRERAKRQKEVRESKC

Row | inhibition at 5 µM (human Nav1.7; [4]) | inhibition at 5 µM (human Nav1.7; [5]) | inhibition at 5 µM (human Nav1.6; [6]) | inhibition at 5 µM (human Nav1.6; [7]) | inhibition at 5 µM (human Nav1.8; [8]) | inhibition at 5 µM (human Nav1.8; [9]) | SMILES | inhibition at 5 min, 5 uM [1] | inhibition at 5 min, 5 µM [2] | inhibition at 5 min, 5 µM [3]
1 | – | – | – | – | – | – | CC(C)Oc1ccc(-c2cnc3ccc(-c4ccc(OC(F)F)cc4)cn23)cc1 [Example C4, 6-[4-(difluoromethoxy)phenyl]-3-[4-(propan-2-yloxy)phenyl]imidazo[1,2-a]pyridine] | > 90% | – | –
2 | – | – | – | – | – | – | CC(C)Oc1ccc(-c2cnc3ccc(-c4ccc(C5(N)CC5)cc4)cn23)cc1 [Example C15, 1-(4-{3-[4-(propan-2-yloxy)phenyl]imidazo[1,2-a]pyridin-6-yl}phenyl)cyclopropan-1-amine] | < 50% | – | –
3 | – | – | – | – | – | – | CC(C)Oc1ccc(-c2cnc3ccc(-c4ccc(C(N)=O)cc4)cn23)cc1 [Example C16, 4-{3-[4-(propan-2-yloxy)phenyl]imidazo[1,2-a]pyridin-6-yl}benzamide] | < 50% | – | –
4 | – | – | – | – | – | – | CC(C)Oc1ccc(-c2cnc3ccc(-c4cnn(C5CC5)c4)cn23)cc1 [Example C17, 1-cyclopropyl-4-{3-[4-(propan-2-yloxy)phenyl]imidazo[1,2-a]pyridin-6-yl}-1H-pyrazole] | < 50% | – | –
5 | < 50% | 50 to 90% | < 50% | > 90% | – | – | CC(C)Oc1ccc(-c2cnc3ccc(-c4ccc(OC(C)C)c(F)c4)cn23)cc1 [Example C24, 6-[3-fluoro-4-(propan-2-yloxy)phenyl]-3-[4-(propan-2-yloxy)phenyl]imidazo[1,2-a]pyridine] | – | > 90% | < 50%
6 | – | – | – | – | – | – | CC(C)Oc1ccc(-c2ccc3ncc(-c4cccc(OC(C)C)c4)n3c2)cc1 [Example C35, 3-[3-(propan-2-yloxy)phenyl]-6-[4-(propan-2-yloxy)phenyl]imidazo[1,2-a]pyridine] | > 90% | – | –
7 | – | – | – | – | – | – | CC(C)Oc1ccc(-c2ccc3ncc(-c4ccc(OC(F)F)cc4)n3c2)cc1 [Example C40, 3-[4-(difluoromethoxy)phenyl]-6-[4-(propan-2-yloxy)phenyl]imidazo[1,2a]pyridine] | < 50% | – | –
8 | – | – | – | – | – | – | COc1cc2ncc(-c3ccc(OC(C)C)cc3)n2cc1-c1ccc(OC(C)C)cc1 [Example C49, 7-methoxy-3,6-bis[4-(propan-2-yloxy)phenyl]imidazo[1,2-a]pyridine] | < 50% | – | –
9 | – | – | – | – | – | – | CC(C)Oc1ccc(-c2cn3c(-c4ccc(OC(C)C)cc4)cnc3cc2C#N)cc1 [Example C52, 3,6-bis(4-isopropoxyphenyl)imidazo[1,2-a]pyridine-7-carbonitrile] | < 50% | – | –
10 | – | – | – | – | – | – | Cc1cc2ncc(-c3ccc(C(C)(C)O)cc3)n2cc1-c1ccc(OC(C)C)cc1 [Example C56, 2-(4-(6-(4-isopropoxyphenyl)-7-methylimidazo[1,2-a]pyridin-3-yl)phenyl)propan-2-ol] | < 50% | – | –
11 | – | – | < 50% | < 50% | < 50% | < 50% | FC(F)(F)Oc1ccc(-c2cnc3ccc(C(F)(F)F)cn23)cc1 [Example C60, 3-(4-(trifluoromethoxy)phenyl)-6-(trifluoromethyl)imidazo[1,2-a]pyridine] | – | – | –
12 | – | – | < 50% | < 50% | < 50% | < 50% | CC(C)Oc1ccc(-c2cnc3ccc(C(F)(F)F)cn23)cc1 [Example C61, 3-(4-isopropoxyphenyl)-6-(trifluoromethyl)imidazo[1,2-a]pyridine] | – | – | –
13 | < 50% | < 50% | – | – | < 50% | < 50% | CS(=O)(=O)NC(=O)c1ccn2c(-c3ccc(OC(F)(F)F)cc3)cnc2c1 [Example C66, N-(methylsulfonyl)-3-(4-(trifluoromethoxy)phenyl)imidazo[1,2-a]pyridine-7-carboxamide] | – | < 50% | < 50%
14 | < 50% | > 90% | < 50% | > 90% | – | – | Cc1cc(-c2cnc3ccc(-c4ccc(OC(C)C)cc4)cn23)cnc1OC(C)C [Example C71, 3-(6-isopropoxy-5-methylpyridin-3-yl)-6-(4-isopropoxyphenyl)imidazo[1,2-a]pyridine] | – | > 90% | < 50%
15 | < 50% | > 90% | < 50% | > 90% | – | – | CC(C)Oc1ccc(-c2ccc3ncc(-c4ccc(C(C)(C)C)cc4)n3c2)cc1 [Example C87, 3-(4-(tert-butyl)phenyl)-6-(4-isopropoxyphenyl)imidazo[1,2-a]pyridine] | – | > 90% | < 50%
16 | < 50% | > 90% | < 50% | > 90% | – | – | CC(C)Oc1ccc(-c2ccc3ncc(-c4ccc(C(C)(C)C)nc4)n3c2)cc1 [Example C89, 3-(6-(tert-butyl)pyridin-3-yl)-6-(4-isopropoxyphenyl)imidazo[1,2-a]pyridine] | – | 50 to 90% | < 50%

Row | SMILES | inhibition at 5 µM (human Nav1.7; [4]) | inhibition at 5 µM (human Nav1.7; [5]) | inhibition at 5 µM (human Nav1.6; [6]) | inhibition at 5 µM (human Nav1.6; [7]) | inhibition at 5 µM (human Nav1.8; [8]) | inhibition at 5 µM (human Nav1.8; [9]) | inhibition at 5 min, 5 uM [1] | inhibition at 5 min, 5 µM [2] | inhibition at 5 min, 5 µM [3]
17 | CS(=O)(=O)NC(=O)c1cc2ncc(-c3ccc(OC(F)(F)F)cc3)n2cc1-c1ccc(OC(F)(F)F)cc1 [Example C67, N-(methylsulfonyl)-3,6-bis(4-(trifluoromethoxy)phenyl)imidazo[1,2-a]pyridine-7-carboxamide] | < 50% | < 50% | – | – | < 50% | < 50% | – | < 50% | < 50%
18 | CC(C)Oc1ccc(-c2ccc3ncc(-c4ccc(OC(C)(C)C)nc4)n3c2)cc1 [Example C90, 3-(6-(tert-butoxy)pyridin-3-yl)-6-(4-isopropoxyphenyl)imidazo[1,2-a]pyridine] | < 50% | > 90% | < 50% | > 90% | – | – | – | > 90% | < 50%

From patent US20230303569A1, “HETEROCYCLIC COMPOUNDS AS THERAPEUTIC AGENTS” (Arisan Therapeutics Inc., priority 2021, published 2023)
